The text below walks through data of patent publication US20250011288A1 (BRISTOL-MYERS SQUIBB COMPANY, priority 2021, published 2025).

pEC50: −log10 of the molar value.

One data set addresses T1, human RXFP1 (Homo sapiens, UniProt Q9HBX9).
T1 construct: expressed in transfected cells
T1 sequence (Q9HBX9 1-757): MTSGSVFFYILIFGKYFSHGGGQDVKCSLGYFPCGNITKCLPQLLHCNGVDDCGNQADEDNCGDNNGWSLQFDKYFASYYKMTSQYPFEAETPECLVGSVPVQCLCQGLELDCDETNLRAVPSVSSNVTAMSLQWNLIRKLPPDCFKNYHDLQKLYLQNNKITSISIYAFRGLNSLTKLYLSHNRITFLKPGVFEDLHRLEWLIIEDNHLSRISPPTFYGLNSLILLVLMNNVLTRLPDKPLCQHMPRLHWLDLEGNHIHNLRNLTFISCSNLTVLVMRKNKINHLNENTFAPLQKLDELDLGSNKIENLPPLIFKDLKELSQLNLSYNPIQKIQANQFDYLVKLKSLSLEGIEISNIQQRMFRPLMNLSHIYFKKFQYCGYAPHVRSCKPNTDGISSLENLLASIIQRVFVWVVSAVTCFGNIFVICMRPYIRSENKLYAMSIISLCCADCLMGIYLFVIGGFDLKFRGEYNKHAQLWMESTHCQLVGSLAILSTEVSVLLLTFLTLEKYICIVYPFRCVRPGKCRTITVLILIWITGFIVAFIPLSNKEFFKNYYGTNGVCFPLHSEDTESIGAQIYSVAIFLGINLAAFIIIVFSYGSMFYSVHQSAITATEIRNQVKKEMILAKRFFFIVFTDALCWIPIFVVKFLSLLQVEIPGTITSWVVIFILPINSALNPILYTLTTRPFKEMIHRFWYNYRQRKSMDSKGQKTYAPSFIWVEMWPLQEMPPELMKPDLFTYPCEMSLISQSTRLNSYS
Description: human RXFP1 (hRXFP1) HEK293 cAMP assay (HTRF). The format is cell-based. Particulars: HEK293 cells stably expressing human RXFP1, 30 min at room temperature. In short, it runs like this: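 Intracellular cAMP was quantified by HTRF after a 30 min room-temperature exposure of hRXFP1-HEK293 cells (1500/well) to compound at 0.010 nM–50 µM final, 2% DMSO. Buffer was HBSS with 20 mM HEPES, 0.05% BSA and 0.5 mM IBMX; values came from a 4-parameter logistic fit.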
In the case of `COc1ncc(Br)nc1C(=O)N[C@@H]1C2CCC(C2=C(C)C)[C@@H]1C(=O)Nc1ccc(F)c(C(F)(F)F)c1` (stereo partly drawn) [Example 5, 6-bromo-N-[(2R,3S)-3-{[4-fluoro-3-(trifluoromethyl)phenyl]carbamoyl}-7-(propan-2-ylidenc)bicyclo [2.2.1]heptan-2-yl]-3-methoxypyrazine-2-carboxamide], the pEC50 (usually the negative decadic logarithm of the EC50, by convention in mol/L) was 5.96.
Still for that read-out and setting: to `COc1cc2c(cc1C(=O)N[C@H]1[C@@H](C(=O)Nc3ccc(F)c(C(F)(F)F)c3)[C@H]3CC[C@@H]1/C3=C\C1CC1)CNCC2` [Example 83, N-((1R,2R,3S,4R,Z)-7-(cyclopropylmethylene)-3-((4-fluoro-3-(trifluoromethyl)phenyl)carbamoyl)bicyclo[2.2.1]heptan-2-yl)-6-methoxy-1,2,3,4-tetrahydroisoquinoline-7-carboxamide] belongs 5.62; to `O=C(O)c1ccc(F)c(-c2cnc(OCCO)c(C(=O)N[C@H]3[C@@H](C(=O)Nc4ccc(F)c(C(F)(F)F)c4)[C@H]4CC[C@@H]3/C4=C\C(F)(F)F)c2)c1` [Example 40, 4-fluoro-3-(5-(((1R,2R,3S,4R,Z)-3-((4-fluoro-3-(trifluoromethyl)phenyl)carbamoyl)-7-(2,2,2-trifluoroethylidene)bicyclo[2.2.1]heptan-2-yl)carbamoyl)-6-(2-hydroxyethoxy)pyridin-3-yl)benzoic acid], 7.41.
Compound `COc1ncc(C2=NOC3CC(CO)CC23)cc1C(=O)N[C@@H]1C2CCC(/C2=C/C2CC2)[C@@H]1C(=O)N[C@H](C)C1(C(F)(F)F)CC1` (stereo partly drawn) [Example 141] showed a negative-log EC50 (pEC50) of 8.47.
On the same count and under the same terms, to `COc1ncc(-c2cc([C@H](OC(=O)NC3CCC3)C(F)(F)F)ccc2F)cc1C(=O)N[C@@H]1C2CCC(/C2=C/C2CC(F)(F)C2)[C@@H]1C(=O)Nc1ccc(F)c(C(F)(F)F)c1` (stereo partly drawn) [Example 169, (1S)-1-[3-(5-{[(2R,3S,7Z)-7-[(3,3-difluorocyclobutyl)methylidene]-3-{[4-fluoro-3-(trifluoromethyl)phenyl]carbamoyl}bicyclo[2.2.1]heptan-2-yl]carbamoyl}-6-methoxypyridin-3-yl)-4-fluorophenyl]-2,2,2-trifluoroethyl N-cyclobutyl-carbamate] belongs 8.10.
On the same count and under the same terms, to `COc1ncc(C2=NOC3CC(C(C)O)CC23)cc1C(=O)N[C@H]1[C@@H](C(=O)Nc2ccc(F)c(C(F)(F)F)c2)[C@H]2CC[C@@H]1/C2=C\C1CCCC1` (stereo partly drawn) [Example 128, N-((1R,2R,3S,4R,Z)-7-(cyclopentylmethylene)-3-((4-fluoro-3-(trifluoromethyl)phenyl)carbamoyl)bicyclo[2.2.1]heptan-2-yl)-5-(5-(1-hydroxyethyl)-3a,5,6,6a-tetrahydro-4H-cyclopenta[d]isoxazol-3-yl)-2-methoxynicotinamide] belongs 8.31.
Still for that read-out and setting: with `COc1ncc(-c2ccc(C(=O)O)cc2)cc1C(=O)N[C@@H]1C2CCC(C2=C(C)C)[C@@H]1C(=O)Nc1ccc(F)c(C(F)(F)F)c1` (stereo partly drawn) [Example 20, 4-(5-{[(2R,3S)-3-{[4-fluoro-3-(trifluoromethyl)phenyl]carbamoyl}-7-(propan-2-ylidene)bicyclo[2.2.1]heptan-2-yl]carbamoyl}-6-methoxypyridin-3-yl)benzoic acid] the figure was 6.60.
With `COc1ncc(C2=NOC3CC(C(O)C(F)(F)F)CC23)cc1C(=O)N[C@H]1[C@@H](C(=O)NC23CC(C#N)(C2)C3)[C@H]2CC[C@@H]1/C2=C\C1CC1` (stereo partly drawn) [Example 108, N-((1R,2R,3S,4R,Z)-3-((3-cyanobicyclo [1.1.1]pentan-1-yl)carbamoyl)-7-(cyclopropyl-methylene)bicyclo[2.2.1]heptan-2-yl)-2-methoxy-5-(5-(2,2,2-trifluoro-1-hydroxyethyl)-3a,5,6,6a-tetrahydro-4H-cyclopenta[d]isoxazol-3-yl)nicotinamide], the pEC50 was 8.46.
Still for that read-out and setting: to `CC1Cc2cc(C3=NOC4CC(O)CC34)cc(C(=O)N[C@@H]3C4CCC(/C4=C/C4CC4)[C@@H]3C(=O)Nc3ccc(F)c(C(F)(F)F)c3)c2O1` (stereo partly drawn) [Example 155, N-[(1R,2R,3S,4R, 7Z)-7-(cyclopropyl-methylidene)-3-{[4-fluoro-3-(trifluoromethyl)phenyl]carbamoyl}bicyclo[2.2.1]heptan-2-yl]-5-{5-hydroxy-3aH,4H,5H,6H, 6H-cyclopenta[d][1,2]oxazol-3-yl}-2-methyl-2,3-dihydro-1-benzofuran-7-carboxamide] belongs 8.17.
Same read-out and setting: with `COc1ncc(-c2cc([C@H](O)C(F)(F)F)ccc2F)nc1C(=O)N[C@@H]1C2CCC(/C2=C/C(F)(F)F)[C@@H]1C(=O)Nc1ccc(F)c(C(F)(F)F)c1` (stereo partly drawn) [Example 34, N-[(2R,3S,7Z)-3-{[4-fluoro-3-(trifluoromethyl)phenyl]carbamoyl}-7-(2,2,2-trifluoroethylidene)bicyclo[2.2.1]heptan-2-yl]-6-{2-fluoro-5-[(1S)-2,2,2-trifluoro-1-hydroxyethyl]phenyl}-3-methoxypyrazine-2-carboxamide] the figure was 5.52; with `CC(C)(O)COc1ccc2c(C(=O)N[C@@H]3C4CCC(/C4=C/C(F)(F)F)[C@@H]3C(=O)Nc3ccc(F)c(C(F)(F)F)c3)nn(C(F)F)c2c1` (stereo partly drawn) [Example 57, 1-(difluoromethyl)-N-[(2R,3S,7Z)-3-{[4-fluoro-3-(trifluoromethyl)phenyl]carbamoyl}-7-(2,2,2-trifluoro-ethylidene)bicyclo[2.2.1]heptan-2-yl]-6-(2-hydroxy-2-methylpropoxy)-1H-indazole-3-carboxamide], 5.41.

Test system in the next data set: not given
Test: not given
Conditions: intravenous (IV) formulation; cited from earlier work.
As for Serelaxin, the first-phase pharmacokinetic half-life is 5.4 min.
